This test addresses T1, HIV-1 reverse transcriptase (Human immunodeficiency virus type 1 group M subtype B, UniProt P04585).
T1 construct: purified recombinant HIV-1 reverse transcriptase (RT, EC, 2.7.7.49); made in house; host or cells: Escherichia coli
Kind of test: Inhibition of HIV-1 Reverse Transcriptase Enzyme. Conditions: purified recombinant HIV-1 RT expressed in Escherichia Coli; [3H]-SPA or [3H]-flashplate enzyme assay; 5% final DMSO. Type of test: biochemical. The text has this:
The activity of the compounds of the invention as reverse transcriptase inhibitors may be measured using the following assay.
Inhibition of HIV-1 Reverse Transcriptase Enzyme
Using purified recombinant HIV-1 reverse transcriptase (RT, EC, 2.7.7.49) obtained by expression in Escherichia Coli, a 96-well plate assay system is established for assaying a large number of samples using either the Poly(rA)-oligo(dT) Reverse Transcriptase [3H]-SPA enzyme assay system (Amersham NK9020) or the [3H]-flashplate enzyme assay system (NEN-SMP 103) and following the manufacturer's recommendations. The compounds are dissolved in 100% DMSO and diluted with the appropriate buffer to a 5% final DMSO concentration. The inhibitory activity is expressed in percent inhibition relative to DMSO control.

Here are results for two molecules from US7157468B2, “Pyrazole derivatives” (Pfizer Inc., priority 2002, dated 2007).

The structures appear in SMILES notation.

As to `Cc1n[nH]c(CC(=O)N2CCc3ccccc3C2)c1Oc1cc(Cl)cc(Cl)c1` [Example 8, 2-[4-(3,5-Dichloro-phenoxy)-5-methyl-2H-pyrazol-3-yl]-1-(3,4-dihydro-1H-isoquinolin-2-yl)-ethanone], the IC50 came to 0.01 µM.

As to `Cc1n[nH]c(CC(=O)N2CCc3ccccc3C2)c1Oc1cc(Cl)cc(C#N)c1` [Example 17], the IC50 turned out to be 0.064 µM.

Broadly, the IC50 is the midpoint of a concentration-inhibition curve.
